A short description of data set [1]: clinical. The conditions noted are these: in vivo. The procedure:
Pharmacokinetics: Serial blood, urine, and feces were collected at specified times following dosing.
All samples collected for radioactivity analysis were analyzed for total radioactivity.
Detailed reports of the bioanalytical methodologies and results accompany the clinical study report.
The other minor metabolite in plasma, p-Fluoroaniline, was analyzed by Exelixis using a validated LC/MS/MS method.
PK variables were computed using WinNonlin Professional, version 5.2.

A short description of data set [2]: clinical. The conditions noted are these: in vivo. How it is done:
Samples for 2 subjects were used for the investigation study. Therefore, only 6 subjects' PK profiles were determined using a radio-quantitation method.
The source holds these as a separate data set.

Where a name gives a salt, the structure may show the parent alone. Where only a bound is given, the exact number is not on record here.

By Tmax is commonly meant the time from dosing to the highest level. With `COc1cc2nccc(Oc3ccc(NC(=O)C4(C(=O)O)CC4)cc3)c2cc1OS(=O)(=O)O` [6-Demethyl Half-Dimer Sulfate], in “clinical [1]” (human), the AUC0-24 is listed as 951 ± 377 (40) h · ng/mL, the AUC0-72 is listed as 7530 ± 3200 (42) h · ng/mL and the AUC0-t is 99500 ± 34500 (35) h · ng/mL. In the data set “clinical [2]” (human), the AUC0-24 was found to be 2520 ± 1370 h · ngEq/mL, the AUC0-72 is on record as 17400 ± 7000 h · ngEq/mL, the AUC0-t stood at 89000 ± 32000 h · ngEq/mL and the Tmax is reported as ~71.99 h.

For `COc1cc2c(Oc3ccc(NC(=O)C4(C(=O)Nc5ccc(F)cc5)CC4)cc3)cc[n+]([O-])c2cc1OC` [XL184-N-Oxide], in “clinical [1]” (human), the AUC0-24 is reported as 2030 ± 682 (34) h · ng/mL, the AUC0-72 was 5610 ± 1940 (35) h · ng/mL, the AUC0-inf is 10300 ± 3170 (31) h · ng/mL and the AUC0-t is recorded as 10100 ± 3210 (32) h · ng/mL. This molecule returned a t1/2 in the data set “clinical [1]” (human) of 89.2 h. Further, the kel in the data set “clinical [1]” was determined as 0.00846 h⁻¹. In “clinical [2]” (human), this molecule showed an AUC0-24 of 4300 ± 1460 h · ngEq/mL, an AUC0-72 of 10600 ± 3490 h · ngEq/mL, an AUC0-inf of 20800 ± 7640 h · ngEq/mL and an AUC0-t of 13300 ± 8360 h · ngEq/mL. The t1/2 in the data set “clinical [2]” (human) came to 73.1 h. In addition, the ke1 in “clinical [2]” came to 0.00976 ± 0.00212 h⁻¹.

On to `COc1cc2nccc(Oc3ccc(NC(=O)C4(C(=O)O)CC4)cc3)c2cc1OC` [XL184-Half-Dimer], for which, in the data set “clinical [1]” (human), the AUC0-24 is listed as 1080 ± 341 (32) h · ng/mL, the AUC0-72 is listed as 3120 ± 976 (31) h · ng/mL, the AUC0-inf is 6770 ± 1700 (25) h · ng/mL and the AUC0-t was 6540 ± 1680 (26) h · ng/mL. The molecule also came in with a t1/2 in “clinical [1]” (human) of 91.8 h. For the same molecule, in “clinical [1]”, the kel was 0.00807 h⁻¹. Moreover, in the data set “clinical [2]” (human), the AUC0-24 came out at 3610 ± 1350 h · ngEq/mL, the AUC0-72 was 8680 ± 3980 h · ngEq/mL, the AUC0-inf amounted to 16400 ± 1770 h · ngEq/mL and the AUC0-t was 11100 ± 5890 h · ngEq/mL. In the data set “clinical [2]” (human), the Cmax was found to be 210 ± 73 ngEq/mL, the Tmax was determined as 1.49 h and the t1/2 is 57.9 ± 28.4 h. In the data set “clinical [2]”, this molecule had a ke1 of 0.0136 ± 0.00672 h⁻¹.

Regarding `Nc1ccc(F)cc1` [p-Fluoroaniline, Para-fluoroaniline], in the data set “clinical [1]” (male, human), the Plasma concentrations is reported as < 2.0 ng/mL.

Values taken from patent US11504362B2, “Liquid dosage forms to treat cancer” (Exelixis, Inc., priority 2017, dated 2022).
